Key:
[1] = test system: rat oligodendrocyte progenitor cells; test: Promotive activity of rat oligodendrocyte progenitor cell differentiation-1 (MBP gene expression, mRNA); type: cell-based; details: Rattus norvegicus, Oligodendrocyte progenitor cell, 96 h, read-out: promotive activity at T3 base (MBP gene expression; DMSO 0%, T3 100%), 4 days, MBP/β actin mRNA
Summary of the method: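 Primary OPCs from 1-day-old SD rat forebrain, isolated by shaking off mixed glial cultures and seeded at 2×10^3 cells/well in B27/CNTF (10 ng/mL) differentiation medium with compound. MBP mRNA measured by one-step TaqMan real-time PCR and expressed as MBP/β-actin ratio.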

[2] = test system: rat oligodendrocyte progenitor cells; test: Promotive activity of rat oligodendrocyte progenitor cell differentiation-2 (immunostaining of MBP); type: cell-based; details: vitamin D derivative 2 μM, T3 30 nM, 4 days
Summary of the method: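 Rat OPCs prepared by shaking in separation medium about 22 h at 37 °C, 200 rpm, and collecting the supernatant.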

[3] = Evaluation of brain penetration in mice (blood and brain concentration at brain Cmax); type: in vivo, mouse; details: 1 mg/kg single oral dose, C57BL/6J mice; for Concentration in blood (mean ± SD) at brain Cmax / Concentration in brain (mean ± SD) at brain Cmax: n=3; for Kp: male, C57BL/6J, mouse, brain/plasma, po, 1 mg/kg, read-out: Concentration in brain/in blood ratio at brain Cmax
Summary of the method: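 Male C57BL/6J mice (8 weeks, n=3) dosed orally once at 1 […] mg/kg; plasma and brain collected at 0.25, 0.5, 1, 2, 4 and 8 h. Compound extracted with acetonitrile from brain homogenate and plasma, quantified by LC/MS/MS.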

[4] = molecular target: T1, human VDR (Homo sapiens, UniProt P11473); test: Evaluation of VDR transcription activity in human osteoblasts (HOS cells), luciferase reporter; details: Activity (EC50, VDR transcription activity), HOS cells transfected with human VDR, human RXRα and DR3 luciferase reporter; 21 hours
T1 sequence (P11473 1-427): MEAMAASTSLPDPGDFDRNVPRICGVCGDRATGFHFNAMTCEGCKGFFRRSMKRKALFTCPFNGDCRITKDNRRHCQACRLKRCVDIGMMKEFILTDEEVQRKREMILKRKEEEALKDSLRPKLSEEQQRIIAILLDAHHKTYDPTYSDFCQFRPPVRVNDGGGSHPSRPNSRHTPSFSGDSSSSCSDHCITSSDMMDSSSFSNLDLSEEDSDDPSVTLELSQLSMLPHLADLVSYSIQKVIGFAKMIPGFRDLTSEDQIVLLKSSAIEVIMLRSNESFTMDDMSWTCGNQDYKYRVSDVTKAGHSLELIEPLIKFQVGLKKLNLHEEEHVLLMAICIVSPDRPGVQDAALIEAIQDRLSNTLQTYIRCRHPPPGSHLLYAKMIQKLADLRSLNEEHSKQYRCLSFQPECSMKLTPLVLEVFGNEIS
T1 sequence (P19793 1-462 partner): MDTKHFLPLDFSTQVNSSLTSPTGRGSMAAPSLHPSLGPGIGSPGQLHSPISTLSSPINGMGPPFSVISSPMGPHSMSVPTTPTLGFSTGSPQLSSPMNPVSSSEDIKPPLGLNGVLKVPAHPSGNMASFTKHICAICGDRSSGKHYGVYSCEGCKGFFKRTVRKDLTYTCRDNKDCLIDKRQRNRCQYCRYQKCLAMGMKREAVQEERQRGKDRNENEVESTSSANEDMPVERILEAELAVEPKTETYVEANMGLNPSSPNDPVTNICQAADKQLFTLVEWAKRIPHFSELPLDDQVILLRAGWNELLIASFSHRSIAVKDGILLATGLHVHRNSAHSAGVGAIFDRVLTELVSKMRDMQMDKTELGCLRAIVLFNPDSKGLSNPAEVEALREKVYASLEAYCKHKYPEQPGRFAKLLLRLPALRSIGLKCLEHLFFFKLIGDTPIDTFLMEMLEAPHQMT

Concentration in blood (mean ± SD) at brain Cmax [3]	Concentration in brain (mean ± SD) at brain Cmax [3]	Kp [3]	EC50 [4]	SMILES	activation at 1 µM [1]	Mean (number of MBP-positive cells/number of Hoechst33342-positive cells) ([2]; Test 1)	Mean (number of MBP-positive cells/number of Hoechst33342-positive cells) ([2]; Test 2)
431 ± 46 nM	652 ± 85 pmol/g	1.51	–	C=C1/C(=C\C=C2/CCC[C@]3(C)[C@@H]([C@H](C)CN4CC[C@@H](C(F)F)C4)CC[C@@H]23)C[C@@H](O)C[C@@H]1O [Compound B024, (1R,3 S,Z)-5-(2-((1R,3aS,7aR,E)-1-((S)-1-((R)-3-(difluoromethyl)pyrrolidin-1-yl)propan-2-yl)-7a-methyloctahydro-4H-inden-4-ylidene)ethylidene)-4-methylenecyclohexane-1,3-diol]	≥ 20%	0.28	–
218 ± 31 nM	384 ± 40 pmol/g	1.76	10 to 100 nM	C[C@H](CN1CC[C@@H](C(F)F)C1)[C@H]1CC[C@H]2/C(=C/C=C3C[C@@H](O)C[C@H](O)C3)CCC[C@]12C [Compound B026, (1R,3R)-5-(2-((1R,3aS,7aR,E)-1-((S)-1-((R)-3-(difluoromethyl)pyrrolidin-1-yl)propan-2-yl)-7a-methyloctahydro-4H-inden-4-ylidene)ethylidene)cyclohexane-1,3-diol]	≥ 20%	0.38	–
126 ± 14 nM	414 ± 40 pmol/g	3.29	1 to 10 nM	C=C1[C@H](O)CC(=C/C=C2\CCC[C@]3(C)[C@@H]([C@H](C)CN4CC[C@@H](C(F)F)C4)CC[C@@H]23)C[C@H]1O [Compound B027, (1R,3R)-5-(2-((1R,3aS,7aR,E)-1-((S)-1-((R)-3-(difluoromethyl)pyrrolidin-1-yl)propan-2-yl)-7a-methyloctahydro-4H-inden-4-ylidene)ethylidene)-2-methylenecyclohexane-1,3-diol]	≥ 20%	0.29	–
304 ± 35 nM	644 ± 92 pmol/g	2.12	10 to 100 nM	C[C@H](CN1CC[C@H](OC(F)F)C1)[C@H]1CC[C@H]2/C(=C/C=C3C[C@@H](O)C[C@H](O)C3)CCC[C@]12C [Compound B051, (1R,3R)-5-(2-((1R,3aS,7aR,E)-1-((S)-1-((S)-3-(difluoromethoxy)pyrrolidin-1-yl)propan-2-yl)-7a-methyloctahydro-4H-inden-4-ylidene)ethylidene)cyclohexane-1,3-diol]	≥ 20%	–	0.45
–	–	–	10 to 100 nM	C[C@H](CN1CC[C@@H](OC(F)(F)F)C1)[C@H]1CC[C@H]2/C(=C/C=C3CC(O)C[C@H](O)C3)CCC[C@]12C (stereo in doubt) [Compound B070, (1R,3S)-5-(2-((1R,3aS,7aR,E)-7a-methyl-1-((S)-1-((R)-3-(trifluoromethoxy)pyrrolidin-1-yl)propan-2-yl)octahydro-4H-inden-4-ylidene)ethylidene)cyclohexane-1,3-diol]	≥ 20%	–	–

Further lines, the compound ahead of its results:

SMILES	Concentration in blood (mean ± SD) at brain Cmax [3]	Concentration in brain (mean ± SD) at brain Cmax [3]	Kp [3]	EC50 [4]	activation at 1 µM [1]	Mean (number of MBP-positive cells/number of Hoechst33342-positive cells) ([2]; Test 1)	Mean (number of MBP-positive cells/number of Hoechst33342-positive cells) ([2]; Test 2)
C=C1[C@H](O)CC(=C/C=C2\CCC[C@]3(C)[C@@H]([C@H](C)CN4CC[C@H](CC(F)F)C4)CC[C@@H]23)C[C@H]1O [Compound B040, (1R,3R)-5-(2-((1R,3aS,7aR,E)-1-((S)-1-((R)-3-(2,2-difluoroethyl)pyrrolidin-1-yl)propan-2-yl)-7a-methyloctahydro-4H-inden-4-ylidene)ethylidene)-2-methylenecyclohexane-1,3-diol]	70 ± 10 nM	153 ± 35 pmol/g	2.18	1 to 10 nM	≥ 20%	0.59	–
C=C1[C@H](O)CC(=C/C=C2\CCC[C@]3(C)[C@@H]([C@H](C)CN4CC[C@H](OCC(F)F)C4)CC[C@@H]23)C[C@H]1O [Compound B055, (1R,3R)-5-(2-((1R,3aS,7aR,E)-1-((S)-1-((S)-3-(2,2-difluoroethoxy)pyrrolidin-1-yl)propan-2-yl)-7a-methyloctahydro-4H-inden-4-ylidene)ethylidene)-2-methylenecyclohexane-1,3-diol]	309 ± 17 nM	327 ± 28 pmol/g	1.06	1 to 10 nM	≥ 20%	–	0.56
C=C1[C@H](O)CC(=C/C=C2\CCC[C@]3(C)[C@@H]([C@H](C)CCN4CCOCC4)CC[C@@H]23)C[C@H]1O [Compound D024, (1R,3R)-5-(2-((1R,3aS,7aR,E)-7a-methyl-1-((R)-4-morpholinobutan-2-yl)octahydro-4H-inden-4-ylidene)ethylidene)-2-methylenecyclohexane-1,3-diol]	368 ± 26 nM	726 ± 88 pmol/g	1.97	–	≥ 20%	–	0.39
C=C1/C(=C\C=C2/CCC[C@]3(C)[C@@H]([C@H](C)CN4CC[C@H](C(F)F)C4)CC[C@@H]23)C[C@@H](O)[C@H](C)[C@@H]1O [Compound B021, (1R,2S,3 S,Z)-5-(2-((1R,3aS,7aR,E)-1-((S)-1-((S)-3-(difluoromethyl)pyrrolidin-1-yl)propan-2-yl)-7a-methyloctahydro-4H-inden-4-ylidene)ethylidene)-2-methyl-4-methylenecyclohexane-1,3-diol]	320 ± 53 nM	237 ± 33 pmol/g	0.74	10 to 100 nM	≥ 20%	–	–
C=C1[C@H](O)CC(=C/C=C2\CCC[C@]3(C)[C@@H]([C@H](C)CN4CC[C@H](CCC(F)F)C4)CC[C@@H]23)C[C@H]1O [Compound B061, (1R,3R)-5-(2-((1R,3aS,7aR,E)-1-((S)-1-((S)-3-(3,3-difluoropropyl)pyrrolidin-1-yl)propan-2-yl)-7a-methyloctahydro-4H-inden-4-ylidene)ethylidene)-2-methylenecyclohexane-1,3-diol]	–	–	–	1 to 10 nM	≥ 20%	–	–
C=C1[C@H](O)CC(=C/C=C2\CCC[C@]3(C)[C@@H]([C@H](C)CN4CC(CC(F)F)C4)CC[C@@H]23)C[C@H]1O [Compound A019, (1R,3R)-5-(2-((1R,3aS,7aR,E)-1-((S)-1-(3-(2,2-difluoroethyl)azetidin-1-yl)propan-2-yl)-7a-methyloctahydro-4H-inden-4-ylidene)ethylidene)-2-methylenecyclohexane-1,3-diol]	–	–	–	10 to 100 nM	≥ 20%	–	–

— patent publication US20230348376A1 (TEIJIN PHARMA LIMITED, priority 2020, published 2023)
